Measured values reported in patent US20040110731A1, “Photodynamic therapy for the treatment of non-melanoma skin cancer” (priority 2002, published 2004).

What was measured:
[1] = Verteporfin PDT in patients, physician visual grading of cosmetic outcome of treated sites (color, profile, texture); format: in vivo, human; conditions: 14 mg/m^2 BPD-MA IV
Experimental: (§1) Visudyne^1 was diluted to 30 ml with 5% dextrose in water. This solution was then administered intravenously by a ten minute infusion to fifty-four patients having multiple non-melanoma skin tumors. The final concentration of BPD-MA administered was 14 mg per m^2 of body surface area. The body surface area was calculated by taking the square root of the […] of (height (cm)×weight (kg))÷3600. ^1 available from Movartis Opthalmics, Duluth, Ga. 30097, USA.
(§2) One to three hours after the start of drug infusion the patients either had their tumors treated with a light dose of 60 or 120 J/cm^2 (as comparative examples) or with a light dose of 180 J/cm^2 according to the invention. The light doses were all of red (688 nm) LED light with a fluence rate of 200 mW/cm^2. A total of 421 tumors were treated. 194 received 60 J/cm^2, 117 received 120 J/cm^2, and 110 received 180 J/cm^2.
(§3) The efficacy of the treatment and the cosmetic outcome were assessed at 6 months and 24 months from the start of treatment. As a measure of efficacy, each treatment site was visually assessed by a physician to see if it was tumor free. The percentage of treatment sites that were judged to be free of tumors is shown in Table 1 (Clinical Complete Response). The treatment sites were also visually graded by the physician to assess the Cosmetic Outcome. Each tumor site was graded as an excellent, good, satisfactory, or less than satisfactory based on the color, profile, and texture of each treated site.

[2] = tested on: multiple non-melanoma skin tumors; assay: Verteporfin PDT in patients, visual assessment of treatment sites for clinical complete response (tumor free); format: in vivo, human; conditions: for Clinical Complete Response (percentage of treatment sites judged free of tumors): 14 mg/m^2 BPD-MA IV
Experimental: as §1, §2
Tumors were examined for clinical response after 3 months.
as §3

[3] = tested on: non-melanoma skin cancers; conditions: cited from earlier work
[4] = 6 months, light dose 60 J/cm^2 (comparative), 688 nm
[5] = 6 months, light dose 120 J/cm^2 (comparative), 688 nm
[6] = 6 months, light dose 180 J/cm^2, 688 nm
[7] = 24 months, light dose 60 J/cm^2 (comparative), 688 nm
[8] = 24 months, light dose 120 J/cm^2 (comparative), 688 nm
[9] = 24 months, light dose 180 J/cm^2, 688 nm

- Tumor Cosmetic Outcome (percentage of treatment sites judged satisfactory or better) [1, 4]: 90.6%
- Tumor Cosmetic Outcome (percentage of treatment sites judged satisfactory or better) [1, 5]: 87.5%
- Tumor Cosmetic Outcome (percentage of treatment sites judged satisfactory or better) [1, 6]: 64.8%
- Tumor Cosmetic Outcome (percentage of treatment sites judged satisfactory or better) [1, 7]: 91.8%
- Tumor Cosmetic Outcome (percentage of treatment sites judged satisfactory or better) [1, 8]: 76.4%
- Tumor Cosmetic Outcome (percentage of treatment sites judged satisfactory or better) [1, 9]: 85.5%
Substance: benzoporphyrin derivative monoacid A ring [Visudyne]
- Clinical response of tumors ([2]; 3 months, tumors on six patients of the comparative 60 J/cm^2 group): no response
- Clinical Complete Response (percentage of treatment sites judged free of tumors) [2, 4]: 78.3%
- Clinical Complete Response (percentage of treatment sites judged free of tumors) [2, 5]: 88.5%
- Clinical Complete Response (percentage of treatment sites judged free of tumors) [2, 6]: 98.0%
- Clinical Complete Response (percentage of treatment sites judged free of tumors) [2, 7]: 51.3%
- Clinical Complete Response (percentage of treatment sites judged free of tumors) [2, 8]: 78.6%
- Clinical Complete Response (percentage of treatment sites judged free of tumors) [2, 9]: 95.4%
- Clinical response ([3]; 60 J/cm^2): relatively poor clinical response
- Cosmetic outcome ([3]; 180 J/cm^2): relatively poor cosmetic outcome
- Cosmetic results with tumor clearing ([3]; light fluence 120 J/cm^2): good to excellent
